The source of these data is PMC2959089, “The intriguing Cyclophilin A-HIV-1 Vpr interaction: prolyl cis/trans isomerisation catalysis and specific binding” (BMC Structural Biology, 2010).

No end group written: not given here.

Data set [1] has as its target T1, CypA (Homo sapiens, UniProt P62937).
T1 construct: made in house; host or cells: E. coli BL21(DE3)
Put plainly: biochemical. In kind it is binding. Particulars: for kon: pH 7.4, read-out: ka1 (association rate constant), two state reaction model; for koff: pH 7.4, read-out: kd1 (dissociation rate constant), two state reaction model. As to the method: The two-state binding model, also called the conformational change model, is based on a 1:1 binding of an analyte to the immobilized ligand followed by a conformational change in the complex. This model should be regarded as indicative, rather than as direct evidence, for a conformational change upon binding. […] From the two-state binding model the association rate (ka1), dissociation rate (kd1), forward rate (ka2) and backward rate (kd2) constants were calculated, and subsequently the magnitude of the dissociation constants (KD) could be calculated ([…] (Table 1).
(§1) SPR measurements were performed at 25°C on a Biacore T100 instrument (Biacore AB, Uppsala, Sweden) equipped with a CM5 research-grade sensor chip. CypA was immobilized in FC 2 and FC 4 to 180 and 918 RU (response units) respectively, using standard amine-coupling chemistry in two flow cells. FC 1 and FC 3 were treated according to FC 2 and FC 4 except for CypA immobilisation and functioned as reference cells. The synthetic Vpr peptides sVpr^1-20, sVpr^21-40, sVpr^25-40, sVpr^30-40, sVpr^32-38 and sVpr^33-37 were dissolved at four concentrations ranging from 50 to 400 μM in the running buffer (HBS-P buffer pH 7.4). […] The samples were injected over the flow cells at a flow rate of 30 μl/min. Data were collected at 2.5 Hz during the 60 s association and 120 s dissociation phase, and were automatically corrected for bulk buffer effects and unspecific binding of Vpr peptides to the chip matrix.
Affinity, association and dissociation rate constants were obtained from sensograms by the Biacore T100 evaluation software version 2.0.1 in accordance with the global curve fit model. Sensorgram data for the four different concentrations were fitted to several binding models including 1:1 (Langmuir) binding model (A+B ↔ AB), two-state reaction (conformational change) model (A+B ↔ AB ↔ AB*) and heterogeneous ligand model (interaction one: A+B1 ↔ AB1; interaction two: A+B2 ↔ AB2). Kinetic constants were calculated for the best fitted model.

A short description of data set [2]: Solubility of sVpr peptides in aqueous buffer (observation during SPR sample preparation). It is filed as physicochemical. As to conditions: for Solubility in SPR running buffer: HBS-P buffer pH 7.4, dissolved at 25-200 μM instead of 50-400 μM. As for the experimental part:
as §1

In data set [3] the target is T1, CypA. The data set is described as follows: 2D 1H NOESY/ROESY NMR exchange spectroscopy of CypA prolyl cis/trans isomerase activity on sVpr peptides and its inhibition by cyclosporine A. It is filed as biochemical. As to conditions: excess cyclosporine A (0.1 mg in 5 μl DMSO-d6) added after CypA. As to the method: After acquisition of 1 D ^1H and 2D ^1H TOCSY, NOESY and ROESY NMR spectra of pure sVpr^1-20 and sVpr^21-40, 50-100 μl 0.11 mM CypA dissolved in aqueous Tris buffer at pH 7 was added to the individual peptide solutions, followed by acquisition of identical series of NMR spectra (1 D ^1H and 2D ^1H TOCSY, NOESY and ROESY) to those of the pure peptides. Exchange peaks occurring in the spectra after addition of CypA were identified by supposition of analogous NOESY and/or ROESY spectra prior to and after addition of CypA using Bruker Topspin 1.3 software.
The catalytic prolyl cis/trans isomerase interactions of CypA with sVpr^1-20 and sVpr^21-40 was inhibited by addition of excessive amounts of cyclosporine A dissolved in 5 μl deuterated dimethylsulfoxide (DMSO-d6).

A further data set has as its system HIV. As to conditions: specific inhibitors of the prolyl cis/trans isomerase activity of CypA; cited from earlier work. The source says:
The interaction of HIV-1 Vpr with CypA is known to occur in vitro and in vivo [9-11]. […] Nonetheless, spe ...

By Kd is commonly meant the constant that tells how readily two partners part at equilibrium. Read a low Kd as higher affinity.

T1 sequence (P62937 whole entry): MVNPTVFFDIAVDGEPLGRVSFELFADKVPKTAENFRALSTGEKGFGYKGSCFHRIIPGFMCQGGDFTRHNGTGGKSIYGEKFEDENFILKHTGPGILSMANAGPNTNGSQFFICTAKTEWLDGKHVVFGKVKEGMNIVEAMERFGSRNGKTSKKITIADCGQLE

Take `CC[C@H](C)[C@H](NC(=O)[C@H](CCCNC(=N)N)NC(=O)[C@@H]1CCCN1C(=O)[C@H](Cc1ccccc1)NC(=O)[C@H](Cc1c[nH]cn1)NC(=O)[C@H](CCCNC(=N)N)NC(=O)[C@@H](NC(=O)[C@H](C)NC(=O)[C@H](CCC(=O)O)NC(=O)[C@H](CO)NC(=O)[C@H](CCCCN)NC(=O)[C@H](CC(C)C)NC(=O)[C@H](CCC(=O)O)NC(=O)[C@H](CCC(=O)O)NC(=O)[C@H](CC(C)C)NC(=O)[C@H](CC(C)C)NC(=O)[C@H](CCC(=O)O)NC(=O)[C@H](CC(C)C)NC(=O)[C@@H](NC(=O)[C@@H](NC(=O)[C@H](Cc1c[nH]c2ccccc12)NC(=O)[C@H](CCC(=O)O)NC(=O)[C@H](CC(N)=O)NC(=O)[C@H](Cc1ccc(O)cc1)NC(=O)[C@@H]1CCCN1C(=O)[C@H](CCC(=O)O)NC(=O)[C@H](CCCNC(=N)N)NC(=O)[C@H](CCC(N)=O)NC(=O)[C@@H]1CCCN1C(=O)CNC(=O)[C@H](CCC(N)=O)NC(=O)[C@H](CC(=O)O)NC(=O)[C@H](CCC(=O)O)NC(=O)[C@@H]1CCCN1C(=O)[C@H](C)NC(=O)[C@H](CCC(N)=O)NC(=O)[C@H](CCC(=O)O)NC(=O)[C@@H](N)CCSC)[C@@H](C)O)[C@@H](C)O)C(C)C)C(=O)N[C@@H](Cc1c[nH]c2ccccc12)C(=O)N[C@@H](CC(C)C)C(=O)N[C@@H](Cc1c[nH]cn1)C(=O)O` [sVpr^1-40]: at CypA [1], the Kd came out at 284 µM, the kon came to 752 M⁻¹ s⁻¹ and the koff was 0.37 s⁻¹. The “Solubility in SPR running buffer” value in data set [2] is “restricted solubility”.

cyclosporine A: the entries for the “Inhibition of CypA prolyl cis/trans isomerase activity (exchange crosspeaks after addition of inhibitor)” value at CypA [3] (substrate sVpr1-20) and on CypA [3] (substrate sVpr21-40) were “disappearance of the prolyl cis/trans exchange crosspeaks” and “prolyl cis/trans exchange crosspeaks disappeared”, respectively. Besides, in the data set on HIV, the “Inhibition of HIV replication” value is recorded as “inhibit HIV replication”.

In the case of `CC[C@H](C)[C@H](NC(=O)[C@H](CCCNC(=N)N)NC(=O)[C@@H]1CCCN1C(=O)[C@H](Cc1ccccc1)NC(=O)[C@H](Cc1c[nH]cn1)NC(=O)[C@H](CCCNC(=N)N)NC(=O)[C@@H](NC(=O)[C@H](C)NC(=O)[C@H](CCC(=O)O)NC(=O)[C@H](CO)NC(=O)[C@H](CCCCN)NC(=O)[C@H](CC(C)C)NC(=O)[C@H](CCC(=O)O)NC(=O)[C@H](CCC(=O)O)NC(=O)[C@H](CC(C)C)NC(=O)[C@H](CC(C)C)NC(=O)[C@H](CCC(=O)O)NC(=O)[C@H](CC(C)C)NC(=O)[C@@H](NC(=O)[C@@H](NC(=O)[C@H](Cc1c[nH]c2ccccc12)NC(=O)[C@H](CCC(=O)O)NC(=O)[C@H](CC(N)=O)NC(=O)[C@H](Cc1ccc(O)cc1)NC(=O)[C@H](CC(N)=O)NC(=O)[C@H](CCC(=O)O)NC(=O)[C@H](CCCNC(=N)N)NC(=O)[C@H](CCC(N)=O)NC(=O)[C@H](CC(N)=O)NC(=O)CNC(=O)[C@H](CCC(N)=O)NC(=O)[C@H](CC(=O)O)NC(=O)[C@H](CCC(=O)O)NC(=O)[C@H](CC(N)=O)NC(=O)[C@H](C)NC(=O)[C@H](CCC(N)=O)NC(=O)[C@H](CCC(=O)O)NC(=O)[C@@H](N)CCSC)[C@@H](C)O)[C@@H](C)O)C(C)C)C(=O)N[C@@H](Cc1c[nH]c2ccccc12)C(=O)N[C@@H](CC(C)C)C(=O)N[C@@H](Cc1c[nH]cn1)C(=O)O` [sVpr^1-40 P5,10,14 N], at CypA [1], the kon came out at 46 M⁻¹ s⁻¹ and the koff came out at 0.56 s⁻¹. In addition, the “Solubility in SPR running buffer” value in data set [2] is listed as “restricted solubility”. In data set [2] (aqueous buffer solution at pH 7, offered as possible reason for unreliable KD), the “Solubility in aqueous buffer solution” value was “relatively poor solubility”.

In the case of `CC[C@H](C)[C@H](NC(=O)[C@H](CCCNC(=N)N)NC(=O)[C@@H]1CCCN1C(=O)[C@H](Cc1ccccc1)NC(=O)[C@H](Cc1c[nH]cn1)NC(=O)[C@H](CCCNC(=N)N)NC(=O)[C@@H](NC(=O)[C@H](C)NC(=O)[C@H](CCC(=O)O)NC(=O)[C@H](CO)NC(=O)[C@H](CCCCN)NC(=O)[C@H](CC(C)C)NC(=O)[C@H](CCC(=O)O)NC(=O)[C@H](CCC(=O)O)NC(=O)[C@H](CC(C)C)NC(=O)[C@H](CC(C)C)NC(=O)[C@@H](N)CCC(=O)O)C(C)C)C(=O)N[C@@H](Cc1c[nH]c2ccccc12)C(=O)N[C@@H](CC(C)C)C(=O)N[C@@H](Cc1c[nH]cn1)C(=O)O` [sVpr^21-40], at CypA [1], the kon came to 466 M⁻¹ s⁻¹ and the koff is 0.164 s⁻¹.

For the compound HFPRI [sVpr^33-37], on CypA [1], the kon was found to be 120 M⁻¹ s⁻¹ and the koff is 0.66 s⁻¹.

With `CC[C@H](C)[C@H](NC(=O)[C@H](CCCNC(=N)N)NC(=O)[C@@H]1CCCN1C(=O)[C@H](Cc1ccccc1)NC(=O)[C@H](Cc1c[nH]cn1)NC(=O)[C@H](CCCNC(=N)N)NC(=O)[C@@H](NC(=O)[C@H](C)N)C(C)C)C(=O)N[C@@H](Cc1c[nH]c2ccccc12)C(=O)N[C@@H](CC(C)C)C(=O)N[C@@H](Cc1c[nH]cn1)C(=O)O` [sVpr^30-40], at CypA [1], the kon was 2470 M⁻¹ s⁻¹ and the koff stood at 0.527 s⁻¹.

Turning to `CC[C@H](C)[C@H](NC(=O)[C@H](CCCNC(=N)N)NC(=O)[C@@H]1CCCN1C(=O)[C@H](Cc1ccccc1)NC(=O)[C@H](Cc1c[nH]cn1)NC(=O)[C@H](CCCNC(=N)N)NC(=O)[C@@H](NC(=O)[C@H](C)NC(=O)[C@H](CCC(=O)O)NC(=O)[C@H](CO)NC(=O)[C@H](CCCCN)NC(=O)[C@H](CC(C)C)NC(=O)[C@@H](N)CCC(=O)O)C(C)C)C(=O)N[C@@H](Cc1c[nH]c2ccccc12)C(=O)N[C@@H](CC(C)C)C(=O)N[C@@H](Cc1c[nH]cn1)C(=O)O` [sVpr^25-40], at CypA [1], the kon was found to be 2000 M⁻¹ s⁻¹ and the koff turned out to be 0.942 s⁻¹.

As to RHFPRIW [sVpr^32-38], on CypA [1], the kon is 924 M⁻¹ s⁻¹ and the koff was 0.67 s⁻¹.
